Measured values reported in US10934297B2, “5-heteroaryl substituted indazole-3-carboxamides and preparation and use thereof” (Samumed, LLC, priority 2018, dated 2021).

Assays:
[1] = tested on: SW480 colon carcinoma cells; assay: Cell viability assay (CellTiter-Glo) in SW480 colon carcinoma cells; type: cell-based, human; conditions: Homo sapiens, 96 h, four days
Outline: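 SW480 cells stably carrying an Sp5-promoter luciferase reporter were plated at 2,000 cells/well in DMEM with 1% FBS and treated with compound for four days at 37 °C. Viability was read as ATP luminescence with CellTiter-Glo after about 12 min; DMSO-treated wells served as controls.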

[2] = target: GSK3β kinase (Homo sapiens (Human), UniProt P49841); assay: GSK3β kinase assay (Ser/Thr 09 peptide Z-lyte FRET); type: biochemical; conditions: read-out: EC50 (method: IC50)
Outline: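 Non-radioactive Z-lyte FRET read-out, kinase activity expressed as coumarin/fluorescein emission ratio. Compounds incubated with the reaction mixture one hour at room temperature in duplicate, then development buffer added for another hour. IC50 from non-linear regression of dose-response curves.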

[3] = target: DYRK1A kinase (Homo sapiens (Human), UniProt Q13627); assay: DYRK1A kinase assay (Ser/Thr 18 peptide Z-lyte FRET); type: biochemical; conditions: read-out: EC50 (method: IC50)
Outline: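 This Z-lyte FRET assay reads the coumarin/fluorescein emission ratio. Compounds were incubated with the reaction mixture for 1 h at room temperature, followed by development reagent for a further 1 h at room temperature, in duplicate.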

[4] = tested on: Wnt activity (Sp5-Luc reporter in SW480 cells); assay: Screening assay for Wnt activity: Sp5-Luc reporter gene assay in SW480 colon carcinoma cells; type: cell-based, human; conditions: Homo sapiens, 36 to 48 hours
Outline: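 SW480 colon carcinoma cells stably carrying a lentiviral luciferase reporter driven by an Sp5 promoter with eight TCF/LEF sites, plated at 4,000 cells/well in DMEM with 1% FBS. Compound exposure for 36–48 h at 37 °C, then luminescence read. Signals normalized to DMSO; EC50 from four-parameter nonlinear fit.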

[5] = tested on: IL-6; assay: IL-6 inhibition in LPS-stimulated human peripheral blood mononuclear cells (HTRF); type: cell-based; conditions: Homo sapiens, PBMC; for EC50: huPBMCs, LPS 50 ng/mL, 22 hours, IL-6 HTRF; for inhibition at 10 µM: read-out: percent inhibition at 10 μM
Outline: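 Fresh human PBMCs at 1×10e6 cells/mL in RPMI/1% FBS were stimulated with 50 ng/mL E. coli 0111:B4 LPS added 2 h after compound, then incubated 22 h at 37° C. Secreted IL-6 was measured by HTRF (665/620 nm ratio) after 3 h at room temperature. EC50 was taken from activity normalized to DMSO-treated cells.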

[6] = tested on: primary human mesenchymal stem cells (hMSCs); assay: Tenocyte differentiation assay (SCXA-positive cells) in hMSCs; type: cell-based; conditions: for EC50: Homo sapiens, Mesenchymal stem cells, 96 h, hMSCs, 4 days, SCXA positive cells; for percent in parentheses under EC50 >100: given for EC50 >100 μM, meaning not defined in this example
Description: Representative compounds were screened using primary human mesenchymal stem cells (hMSCs) to determine their ability to induce tenocyte differentiation (process by which tendon is developed).
Primary human mesenchymal stem cells (hMSCs) were purchased from Lonza (Walkersville, Md.) and expanded in Mesenchymal Stem Cell Growth Media (Lonza). Cells between passage 3 and 6 were used for the experiments.
Cells were fixed using 4% formaldehyde (Electron Microscopy Sciences), and stained with anti-Sclerasis (anti-SCXA) antibodies (Abgent, San Diego, Calif.) [Webb S., et.al., Retinoic acid receptor signaling preserves tendon stem cell characteristics and prevents spontaneous differentiation in vitro, Stem Cell Research & Therapy 2016, 7:45] overnight at 4° C. […] Number of cells positive for SCXA in each well was quantified using the CellInsight CX5. Data was normalized to the average of 12 DMSO treated wells on the same plate using Dotmatics Studies module. The normalized averages (fold change over DMSO) of 3 replicate wells for each compound concentration were calculated. Due to solubility limitations of some of the compounds, values for higher doses were manually corrected and curve fitting and EC50 determinations were performed using Dotmatics Studies.

[7] = tested on: primary human fibroblasts derived from IPF patients (LL29 cells); assay: Inhibition of the fibrotic process: αSMA staining in TGF-β1 treated LL29 fibroblasts; type: cell-based; conditions: Homo sapiens, Fibroblast; for EC50: 96 h, LL29 cells, TGF-β1 20 ng/mL, 4 days, % αSMA positive cells; for inhibition at 10 µM: read-out: percent inhibition at 10 μM
Outline: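 LL29 fibroblasts from IPF patients, in F12 medium with 1% FBS, treated with TGF-β1 plus compound; TGF-β1 with DMSO as positive control, DMSO alone as negative control. After 4 days' incubation, SYTOX green nucleic acid stain added at 1 μM final, 30 min at room temperature.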

Sequence of GSK3β kinase (P49841 whole entry): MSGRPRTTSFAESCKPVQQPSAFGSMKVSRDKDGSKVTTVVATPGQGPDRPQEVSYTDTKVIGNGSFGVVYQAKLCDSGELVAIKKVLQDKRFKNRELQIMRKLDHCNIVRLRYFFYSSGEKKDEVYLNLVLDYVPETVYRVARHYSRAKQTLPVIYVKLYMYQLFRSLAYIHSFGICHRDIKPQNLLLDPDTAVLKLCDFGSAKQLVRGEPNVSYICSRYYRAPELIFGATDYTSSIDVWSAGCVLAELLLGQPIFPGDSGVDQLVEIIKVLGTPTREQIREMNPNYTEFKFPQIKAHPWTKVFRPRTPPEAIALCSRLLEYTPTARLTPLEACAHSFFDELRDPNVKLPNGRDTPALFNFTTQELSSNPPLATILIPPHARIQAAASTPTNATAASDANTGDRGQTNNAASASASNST

SMILES | EC50 [1] [nM] | IC50 [2] [nM] | IC50 [3] [nM] | EC50 [4] [nM] | EC50 [5] [nM] | EC50 [6] [nM] | percent in parentheses under EC50 >100 [6] | EC50 [7] [nM] | inhibition at 10 µM [5] [%] | inhibition at 10 µM [7] [%]
CNC(=O)c1ccc(NC(=O)c2n[nH]c3ccc(-c4cnn(C5CCN(C)CC5)c4)cc23)cn1 [Compound 128, N-(6-(Methylcarbamoyl)pyridin-3-yl)-5-(1-(1-methylpiperidin-4-yl)-1H-pyrazol-4-yl)-1H-indazole-3-carboxamide] | 493 | 633 | 5 | 180 | 3280 | 5720 | – | 439 | – | –
CN1CCC(Oc2ccc(NC(=O)c3n[nH]c4c(F)cc(-c5cnn(C)c5)cc34)cn2)CC1 [Compound 129, 7-Fluoro-5-(1-methyl-1H-pyrazol-4-yl)-N-(6-((1-methylpiperidin-4-yl)oxy)pyridin-3-yl)-1H-indazole-3-carboxamide] | 3020 | 87 | 30 | 6120 | 6770 | > 100000 | (13.0%) | 1840 | – | –
Cc1ncc(-c2ccc3[nH]nc(C(=O)N[C@@H](C)C(F)(F)F)c3c2)n1C [Compound 131, (S)-5-(1,2-Dimethyl-1H-imidazol-5-yl)-N-(1,1,1-trifluoropropan-2-yl)-1H-indazole-3-carboxamide] | 3040 | 27 | 220 | > 10000 | > 10000 | 2770 | – | 4490 | 15.1 | –
CC[C@H](NC(=O)c1n[nH]c2ccc(-c3cnc(C)n3C)cc12)C(F)(F)F [Compound 132, (S)-5-(1,2-Dimethyl-1H-imidazol-5-yl)-N-(1,1,1-trifluorobutan-2-yl)-1H-indazole-3-carboxamide] | > 10000 | 106 | 453 | > 10000 | > 10000 | > 100000 | (26.5%) | > 10000 | 12.7 | 48.8
Cc1ncc(-c2ccc3[nH]nc(C(=O)N[C@@H](C(C)C)C(F)(F)F)c3c2)n1C [Compound 133, (S)-5-(1,2-Dimethyl-1H-imidazol-5-yl)-N-(1,1,1-trifluoro-3-methylbutan-2-yl)-1H-indazole-3-carboxamide] | > 10000 | 1350 | 930 | > 10000 | > 10000 | > 100000 | (15.8%) | > 10000 | 20.2 | 35.8
Cc1ncc(-c2cc(F)c3[nH]nc(C(=O)N[C@@H](C)C(F)(F)F)c3c2)n1C [Compound 134, (S)-5-(1,2-Dimethyl-1H-imidazol-5-yl)-7-fluoro-N-(1,1,1-trifluoropropan-2-yl)-1H-indazole-3-carboxamide] | > 10000 | 46 | 482 | > 10000 | > 10000 | > 100000 | (38.8%) | 1070 | 8.1 | –
C[C@H](NC(=O)c1n[nH]c2c(F)cc(-c3cnn(C)c3)cc12)C(F)(F)F [Compound 135, (S)-7-Fluoro-5-(1-methyl-1H-pyrazol-4-yl)-N-(1,1,1-trifluoropropan-2-yl)-1H-indazole-3-carboxamide] | > 10000 | 43 | 439 | > 10000 | > 10000 | > 100000 | (16.1%) | > 10000 | 50.6 | –
Cc1coc(NC(=O)c2n[nH]c3cc(F)c(-c4cnn(C5CCN(C)CC5)c4)cc23)n1 [Compound 138, 6-Fluoro-N-(4-methyloxazol-2-yl)-5-(1-(1-methylpiperidin-4-yl)-1H-pyrazol-4-yl)-1H-indazole-3-carboxamide] | 105 | 193 | 6 | 125 | 2730 | 4920 | – | 435 | – | –
Cc1cc(NC(=O)c2n[nH]c3ccc(-c4cnn(C5CCN(C)CC5)c4)cc23)sn1 [Compound 143, N-(3-Methylisothiazol-5-yl)-5-(1-(1-methylpiperidin-4-yl)-1H-pyrazol-4-yl)-1H-indazole-3-carboxamide] | 60 | 52 | 5 | 90 | 1410 | > 100000 | (23.0%) | 207 | – | –
CC(C)CN1CC[C@H](NC(=O)c2n[nH]c3ccc(-c4cn[nH]c4)cc23)[C@@H](F)C1 [Compound 145, N-((3 S,4S)-3-Fluoro-1-isobutylpiperidin-4-yl)-5-(1H-pyrazol-4-yl)-1H-indazole-3-carboxamide] | 372 | 41 | 37 | 345 | 1140 | 863 | – | 100 | – | –

Further lines, with some results ahead:

EC50 [1] [nM] | IC50 [2] [nM] | IC50 [3] [nM] | EC50 [4] [nM] | EC50 [5] [nM] | EC50 [6] [nM] | percent in parentheses under EC50 >100 [6] | SMILES | EC50 [7] [nM] | inhibition at 10 µM [5] [%] | inhibition at 10 µM [7] [%]
5220 | 1340 | 8290 | 4240 | > 10000 | 2480 | – | Cn1cc(-c2ccc3[nH]nc(C(=O)NC45CC6CC(CC(C6)C4)C5)c3c2)cn1 [Compound 137, N-((3s,5s,7s)-Adamantan-1-yl)-5-(1-methyl-1H-pyrazol-4-yl)-1H-indazole-3-carboxamide] | 2090 | – | –
2600 | 5 | 2 | 713 | 1250 | > 100000 | (12.6%) | Cn1cc(-c2ccc3[nH]nc(C(=O)Nc4cnn(C5CCNCC5)c4)c3c2)cn1 [Compound 140, 5-(1-Methyl-1H-pyrazol-4-yl)-N-(1-(piperidin-4-yl)-1H-pyrazol-4-yl)-1H-indazole-3-carboxamide] | 301 | – | –
64 | 4 | 1 | 79 | 382 | 930 | – | CN1CCC(n2cc(NC(=O)c3n[nH]c4ccc(-c5cnn(C)c5)cc34)cn2)CC1 [Compound 141, 5-(1-Methyl-1H-pyrazol-4-yl)-N-(1-(1-methylpiperidin-4-yl)-1H-pyrazol-4-yl)-1H-indazole-3-carboxamide] | 103 | – | –
116 | 208 | 8 | 130 | 1100 | > 100000 | (38.2%) | CN1CCC(n2cc(-c3ccc4[nH]nc(C(=O)Nc5cnn(C)c5)c4c3)cn2)CC1 [Compound 142, N-(1-Methyl-1H-pyrazol-4-yl)-5-(1-(1-methylpiperidin-4-yl)-1H-pyrazol-4-yl)-1H-indazole-3-carboxamide] | 115 | – | –
1300 | 6440 | 8 | > 10000 | > 10000 | > 100000 | (27.4%) | Cc1cnc(NC(=O)c2n[nH]c3ccc(-c4cnn(C5CCN(C)CC5)c4)cc23)s1 [Compound 144, 5-(1-(1-Methylpiperidin-4-yl)-1H-pyrazol-4-yl)-N-(5-methylthiazol-2-yl)-1H-indazole-3-carboxamide] | 2190 | 49 | –
6700 | 15 | 26 | 3870 | 1070 | 2640 | – | CN1CCC(CNC(=O)c2n[nH]c3ccc(-c4cnn(C)c4)cc23)CC1 [Compound 147, 5-(1-Methyl-1H-pyrazol-4-yl)-N-((1-methylpiperidin-4-yl)methyl)-1H-indazole-3-carboxamide] | 723 | – | –
